Converted amounts (≈) assume the structure as drawn. Read-outs that look alike come from different tables or passages of the source.
Columns and labels:
[1] = test system: V. virens isolate FJ4-1b (wild type); test: Tebuconazole sensitivity, mycelial growth on amended PSA, wild type isolate; type: cell-based, Villosiclava virens; conditions: Ustilaginoidea virens, 336 h, 28 °C, 14 days
Procedure: Mycelial plugs (6 mm) were transferred in triplicates from the margins of 14-day old colonies to 9 cm petri dishes containing nonamended or tebuconazole-amended PSA. Dishes were incubated at 28 °C for 14 days in darkness. The average colony diameter was measured in two perpendicular directions, and the EC50 value was determined by regressing percentage growth inhibition against the log of fungicide concentration.

[2] = test system: V. virens pB-Vv51wt transformants (P-F); test: Tebuconazole sensitivity, mycelial growth on amended PSA, pB-Vv51wt transformants; type: cell-based, Villosiclava virens; conditions: Ustilaginoidea virens
[3] = molecular target: T1, truncated wild type VvCYP51 (Ustilaginoidea virens (Villosiclava virens), UniProt X2GGV8); test: UV-visible spectral binding assay, truncated wild type protein
T1 sequence (X2GGV8 29-528): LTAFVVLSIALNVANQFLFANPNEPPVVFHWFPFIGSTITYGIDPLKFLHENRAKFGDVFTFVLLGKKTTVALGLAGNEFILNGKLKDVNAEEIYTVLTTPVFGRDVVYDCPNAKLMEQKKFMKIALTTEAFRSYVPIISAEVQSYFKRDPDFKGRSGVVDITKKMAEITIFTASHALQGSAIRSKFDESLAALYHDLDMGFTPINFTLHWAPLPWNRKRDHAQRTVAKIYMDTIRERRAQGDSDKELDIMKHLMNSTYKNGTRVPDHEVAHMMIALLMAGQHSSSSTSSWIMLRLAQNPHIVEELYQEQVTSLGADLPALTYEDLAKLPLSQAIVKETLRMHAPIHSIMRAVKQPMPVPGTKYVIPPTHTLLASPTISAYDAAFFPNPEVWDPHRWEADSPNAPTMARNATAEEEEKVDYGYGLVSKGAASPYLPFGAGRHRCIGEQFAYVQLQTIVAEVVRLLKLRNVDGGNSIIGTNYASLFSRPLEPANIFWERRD

[4] = test system: VvCYP51 gene expression in isolate FJ4-1b; test: Induction of VvCYP51 gene expression by tebuconazole (real-time PCR); conditions: 0.1 μg/ml tebuconazole for 6 h, versus untreated control
Procedure: The wild type isolates, mutant, and transformants were grown in 50 ml of PSB at 28 °C for 7 days on a 160 rpm orbital shaker. Total RNA was extracted from mycelia using the TRIzole reagent (Aidlab, Beijing, China), then digested with DNase I nuclease (Takara, Dalian, China) to remove DNA contamination. The cDNA was synthesized using a RevertAid First Strand cDNA Synthesis Kit employing the oligo(dT)18 primer (Thermo Fisher Scientific, Waltham, MA). The expression of the VvCYP51 gene was evaluated by real-time PCR using the primer pair RealCYP51-F/RealCYP51-R. Expression was normalized with the α-tubulin gene. Relative expression was calculated using the comparative Ct (2^−ΔΔCt) method[51]. […] Real-time PCR amplifications of VvCYP51 were performed in a CFX96 Real-Time PCR Detection System (Bio-Rad Laboratories Inc., Hercules, CA) using SYBR Green I fluorescent dye. Amplifications were conducted in a 20-μl volume containing 10 μl of SYBR qPCR Mix (Aidlab, Beijing, China), 1 μl of RT product and 0.2 μM of each primer. All samples were in triplicates with the following profile: an initial preheat at 95 °C for 2 min, followed by 40 cycles at 95 °C for 20 s, 60 °C for 20 s and 72 °C for 20 s. The entire experiment starting with RNA extractions was repeated four times.

CC(C)(C)C(O)(CCc1ccc(Cl)cc1)Cn1cncn1 (stereo not drawn) [tebuconazole]
EC50 [1]: 0.04 µg/mL (≈ 0.13 µM)
EC50 ([2]; 336 h, read-out: EC50 value, transformant P-F 4, mycelial growth on PSA, 28 °C, 14 days): 0.11 µg/mL (≈ 0.357 µM)
EC50 ([2]; 336 h, read-out: EC50 value, transformant P-F 7, mycelial growth on PSA, 28 °C, 14 days): 0.24 µg/mL (≈ 0.78 µM)
EC50 ([2]; 336 h, read-out: EC50 value, transformant P-F 8, mycelial growth on PSA, 28 °C, 14 days): 0.13 µg/mL (≈ 0.422 µM)
EC50 ([2]; 336 h, read-out: EC50 value, transformant P-F 9, mycelial growth on PSA, 28 °C, 14 days): 0.15 µg/mL (≈ 0.487 µM)
EC50 ([2]; 336 h, read-out: EC50 value, transformant P-F 10, mycelial growth on PSA, 28 °C, 14 days): 0.12 µg/mL (≈ 0.39 µM)
EC50 ([2]; 336 h, read-out: EC50 value, transformant P-F 13, mycelial growth on PSA, 28 °C, 14 days): 0.11 µg/mL (≈ 0.357 µM)
EC50 ([2]; 336 h, read-out: EC50 value, transformant P-F 14, mycelial growth on PSA, 28 °C, 14 days): 0.28 µg/mL (≈ 0.91 µM)
EC50 ([2]; 336 h, read-out: EC50 value, transformant P-F 15, mycelial growth on PSA, 28 °C, 14 days): 0.13 µg/mL (≈ 0.422 µM)
EC50 ([2]; 336 h, read-out: EC50 value, transformant P-F 16, mycelial growth on PSA, 28 °C, 14 days): 0.13 µg/mL (≈ 0.422 µM)
EC50 ([2]; 336 h, read-out: EC50 value, transformant P-F 17, mycelial growth on PSA, 28 °C, 14 days): 0.2 µg/mL (≈ 0.65 µM)
EC50 ([2]; 336 h, read-out: EC50 value, transformant P-F 20, mycelial growth on PSA, 28 °C, 14 days): 0.27 µg/mL (≈ 0.877 µM)
EC50 ([2]; 336 h, read-out: EC50 value, transformant P-F 22, mycelial growth on PSA, 28 °C, 14 days): 0.15 µg/mL (≈ 0.487 µM)
EC50 ([2]; 336 h, read-out: EC50 value, transformant P-F 23, mycelial growth on PSA, 28 °C, 14 days): 0.2 µg/mL (≈ 0.65 µM)
EC50 ([2]; 336 h, read-out: EC50 value, transformant P-F 25, mycelial growth on PSA, 28 °C, 14 days): 0.15 µg/mL (≈ 0.487 µM)
EC50 ([2]; 336 h, read-out: EC50 value, transformant P-F 26, mycelial growth on PSA, 28 °C, 14 days): 0.18 µg/mL (≈ 0.585 µM)
EC50 ([2]; 336 h, read-out: EC50 value, transformant P-F 28, mycelial growth on PSA, 28 °C, 14 days): 0.13 µg/mL (≈ 0.422 µM)
EC50 ([2]; 336 h, read-out: EC50 value, transformant P-F 29, mycelial growth on PSA, 28 °C, 14 days): 0.26 µg/mL (≈ 0.845 µM)
EC50 ([2]; 336 h, read-out: EC50 value, transformant P-F 31, mycelial growth on PSA, 28 °C, 14 days): 0.25 µg/mL (≈ 0.812 µM)
EC50 ([2]; 336 h, read-out: EC50 value, transformant P-F 32, mycelial growth on PSA, 28 °C, 14 days): 0.32 µg/mL (≈ 1.04 µM)
EC50 ([2]; 336 h, read-out: EC50 value, transformant P-F 33, mycelial growth on PSA, 28 °C, 14 days): 0.12 µg/mL (≈ 0.39 µM)
EC50 ([2]; 336 h, read-out: EC50 value, transformant P-F 34, mycelial growth on PSA, 28 °C, 14 days): 0.15 µg/mL (≈ 0.487 µM)
EC50 ([2]; 336 h, read-out: EC50 value, transformant P-F 36, mycelial growth on PSA, 28 °C, 14 days): 0.22 µg/mL (≈ 0.715 µM)
EC50 ([2]; 336 h, read-out: EC50 value, transformant P-F 37, mycelial growth on PSA, 28 °C, 14 days): 0.11 µg/mL (≈ 0.357 µM)
EC50 ([2]; 336 h, read-out: EC50 value, transformant P-F 38, mycelial growth on PSA, 28 °C, 14 days): 0.31 µg/mL (≈ 1.01 µM)
EC50 ([2]; 336 h, read-out: EC50 value, transformant P-F 39, mycelial growth on PSA, 28 °C, 14 days): 0.13 µg/mL (≈ 0.422 µM)
EC50 ([2]; 336 h, read-out: EC50 value, transformant P-F 40, mycelial growth on PSA, 28 °C, 14 days): 0.21 µg/mL (≈ 0.682 µM)
EC50 ([2]; read-out: EC50 values (range), range over the 26 pB-Vv51wt transformants): 0.11 to 0.32 µg/mL (≈ 0.357 to 1.04 µM)
Kd ([3]; bound for the three different truncated wild type VvCYP51 proteins, read-out: Kd values): < 40 nM
Kd ([3]; wild type VvCYP51, −28aa N-terminal truncation, read-out: Kd): 37 ± 2.7 nM
Kd ([3]; wild type VvCYP51, −42aa N-terminal truncation, read-out: Kd): 34 ± 2.3 nM
Kd ([3]; wild type VvCYP51, −74aa N-terminal truncation, read-out: Kd): 37 ± 2.5 nM
increase of expression of VvCYP51 gene [4]: 29.94 fold

— publication PMC4668384 (Scientific Reports, 2015)
